From patent publication US11673861B2, “Perfluorinated 1-alkoxypropenes, compositions, and methods and apparatuses for using same” (priority 2017, dated 2023)

Legend:
[1] = Dielectric constant, ASTM D150-11; type: physicochemical
Method: (§1) Dielectric breakdown strength and dielectric constant were measured for PE-1, PE-2, CE-1 to CE-4. The dielectric constants presented in Table 7, below, were measured using the broadband Novocontrol Dielectric Spectrometer per ASTM D150-11. The dielectric breakdown strengths presented in Table 7 were measured according to ASTM D877-13, Procedure A, with the following modification: spacing between the electrodes was 2.54 mm and rate of rise was 500 V/sec.

[2] = Dielectric breakdown strength, ASTM D877-13 Procedure A; type: physicochemical; details: electrode spacing 2.54 mm, rate of rise 500 V/sec
Method: as §1

[3] = Pour point, determined visually; type: physicochemical
Method: The useful liquid range of a perfluorinated 1-alkoxypropene compound of the present disclosure is between its pour point and its boiling point. A pour point is the lowest temperature at which the compound is still able to be poured. The pour point can be determined, for example, by ASTM D97-16 “Standard Test Method for Pour Point of Petroleum Products.” In one embodiment, the compounds of the present disclosure have a pour point of less than −100° C., less than −120° C., less than −130° C., or less than −140° C. Pour Point can be measured by placing a sealed glass vial containing 3 mL of the fluid into a refrigerated bath, adjusting temperature incrementally and checking for pouring. Pouring is defined as visible movement of the material during a five second count. This criterion is specified in ASTM D97-16.
One to two milliliters of the sample were placed in a vial and cooled in a bath until it solidified. The sample was then allowed to warm slowly in the bath and observed every 3-5° C.

[4] = Boiling point, ASTM D1120-94; type: physicochemical; details: temperature at 760 mmHg
Method: Vapor Pressure was measured using the stirred-flask ebulliometer method described in ASTM E1719-97 “Vapor Pressure Measurement by Ebulliometry.” This method is also referred to as “Dynamic Reflux.” The boiling point was measured using ASTM D1120-94 “Standard Test Method for Boiling Point of Engine Coolants.” The method used a 50-mL glass round-bottom flask. Vacuum was measured and controlled using a vacuum controller available from J-KEM Scientific, Inc., St. Louis, Mo., USA. The pressure transducer was calibrated on the day of measurement by comparison with full vacuum and with an electronic barometer located in the same laboratory. The procedure was carried out by slowly heating the material, then applying vacuum until boiling occurred and a steady dropwise reflux rate was established. Pot temperature and pressure reading were recorded, then the vacuum controller was set for a higher absolute pressure and the material was heated further until a new reflux point was established. The pressure level was raised in increments until the vapor pressure curve was obtained up to the atmospheric boiling point.
The boiling point of PE-1 is 60.1° C., which is the temperature at 760 mmHg. The boiling point of PE-2 is 88.1° C., which is the temperature at 760 mmHg.

rats = test: Toxicity screening study in rats, 4 h inhalation LC-50; type: in vivo
Method: MA-3 (50 g, 160 mmol) was charged to a 3-neck flask equipped with a water-cooled condenser and magnetic stir bar. SbF5 was then added dropwise to the stirring MA-3 and a large exotherm was observed. The resultant reaction mixture was allowed to stir at room temperature for 1 h. GC-FID analysis of the reaction mixture indicated complete consumption of the MA-3 starting material. Water was then added to the mixture with stirring. The fluorous phase was collected and distilled by concentric tube distillation (59° C., 740 mmHg, 98.7 kPa) affording the desired MP-3 (41.2 g, 82% yield) as a colorless liquid. Both E- and Z-isomers were obtained as a mixture. […] The structure was confirmed by GC-MS and ^19F NMR analyses to be that of the desired product.

[5] = Thermal stability with absorbents, GC-FID purity; type: physicochemical
Method: The thermal stability was measured by charging 1.0 g of Preparatory Example 2 into glass vials and then adding 0.10 g of absorbent. The samples were stirred for 24 h at 50° C. and then analyzed by GC-FID for decomposition and purity changes.

Structure (SMILES)	Dielectric Constant (measured at 1 kHz) [1]	Dielectric Breakdown Voltage [2] [kV]	Pour point [3] [°C]	Boiling point [4] [°C]	4 h inhalation LC-50 (rats)	Purity (%) ([5]; 4 Angstrom Molecular Sieves, 24 h at 50° C.)	Purity (%) ([5]; Activated Carbon, 24 h at 50° C.)	Purity (%) ([5]; Basic Alumina, 24 h at 50° C.)	Purity (%) ([5]; K2CO3, 24 h at 50° C.)	Purity (%) ([5]; No Absorbent, 24 h at 50° C.)	Purity (%) ([5]; Silica Gel, 24 h at 50° C.)
FC(F)=C(F)C(F)(F)OC(F)(F)C(F)(F)C(F)(F)F [MA-3, 1,1,2,3,3-pentafluoro-3-(perfluoropropoxy)prop-1-ene, reference compound]	2.37	30.7									
FC(F)=C(F)C(F)(F)OC(F)(F)C(F)(F)C(F)(F)OC(F)(F)F [MA-31, 1,1,2,3,3-Pentafluoro-3-(1,1,2,2,3,3-hexafluoro-3-(trifluoromethoxy)propoxy)prop-1-ene, reference compound]	2.37	39.4									
FC(OC(F)(F)C(F)(F)C(F)(F)F)=C(F)C(F)(F)F [PE-1, 1,2,3,3,3-pentafluoro-1-(perfluoropropoxy)prop-1-ene]	2.04	41.7	−145	60.1	greater than 10,000 ppm						
FC(OC(F)(F)C(F)(F)C(F)(F)OC(F)(F)F)=C(F)C(F)(F)F [PE-2, 1,2,3,3,3-pentafluoro-1-(1,1,2,2,3,3-hexafluoro-3-(trifluoromethoxy)propoxy)prop-1-ene]	2.04	>60	−140	88.1		99.5	99.5	99.5	99.3	99.5	99.4
